Assay results: patent US20210283198A1, “METHOD FOR TREATING AND/OR PREVENTING COCCIDIOSIS” (priority 2020, published 2021)
Marks after values point to notes of the source that are not given here. *1 amine or outer side, *2 acyl side, *3 side chain or, on linkers, in order; H or OH if unused. Where a SMILES comes first, the peptide text is derived from it. Bridges are numbered along the chain shown (N, C = ends). [ ]: non-standard residue; d: D form. X1 = CC(C)CCCCCCCCC[C@H](CC(=O)[*:1])O[*:2]

How the values were obtained:
[1] = tested on: Eimeria tenella merozoites; experiment: In vitro death of merozoite (propidium iodide staining, confocal microscopy); assay type: cell-based; conditions: 100 ppm; 10^4/mL merozoites; 1 h at 37° C.; mean ± SD (n = 3)
[2] = tested on: Eimeria tenella sporozoites; experiment: Scanning electron microscopy of sporozoite morphology; assay type: cell-based; conditions: 5, 10, 20 ppm; 1 h at 37° C.; 10^6 sporozoites/mL; compared with untreated group
P. falciparum = conditions: literature (Chakrabarty et al. 2008); cited from earlier work

In the case of `CC(C)CCCCCCCCC[C@@H]1CC(=O)N[C@@H](CCC(=O)O)C(=O)N[C@@H](CC(C)C)C(=O)N[C@H](CC(C)C)C(=O)N[C@@H](C(C)C)C(=O)N[C@@H](CC(=O)O)C(=O)N[C@H](CC(C)C)C(=O)N[C@@H](CC(C)C)C(=O)O1` [surfactin standard, surfactin] (EL[dL]VD[dL]L; linker N-C via X1), the “Death of merozoite (%)” value [1] is given as 97 ± 0.01^b %, the “Morphology of Eimeria tenella sporozoites (scanning electron microscopy)” value [2] is given as “disrupt the morphology” and the “Intraerythrocytic growth of P. falciparum” value (P. falciparum) is given as “potent inhibitor of intraerythrocytic growth”.
